The test system of assay [1] is HepG2 (hepatocellular carcinoma). Nature of the assay: in vitro cytotoxicity assay (Cell-Titer-Glo), HepG2. It is filed as cell-based. As to conditions: Homo sapiens, Table 10, 96 hours, read-out: IC50 HepG2 (inhibit cell growth to 50% of untreated).
A further assay has as its system TT (medullary thyroid). The assay is described as follows: in vitro cytotoxicity assay (Cell-Titer-Glo), TT. It is filed as cell-based. On the procedure: (§1) To evaluate cell killing of cancer cell lines, an in vitro cytotoxicity assay was performed. The tumor cell lines used were purchased from the American Type Culture Collection, and are identified as follows: Panc-1 (pancreas), MiaPaCa-2 (pancreas), MCF-7 (breast), HT-29 (colon), U2-OS (osteosarcoma), OVCAR-3 (ovary), HepG2 (hepatocellular carcinoma) and TT (medullary thyroid). The assay utilized the Cell-Titer-Glo Non-Radioactive Cell Proliferation Assay (Promega Corp., Madison, Wis.). First the cells were cultured in RPMI 1640 medium (Cat# 21870-076, Invitrogen Corporation) supplemented with 300 mg/L L-glutamine, 100 units/ml penicillin, 100 μg/ml streptomycin and 10% fetal bovine serum. All the cell lines were incubated in a humidified incubator at 37° C. with 5% CO2 atmosphere.
Cells were plated at a density of 2000 to 10000 cells per well, depending on their growth rate, in 0.09 mL medium on day 0 in 96-well Microlite TCT microtiter plates (7418, Thermo Labsystems, Franklin, Mass.). On day 1, 10 μL of serial dilutions of the individual compounds were added to the plates in replicates of 3. After incubation for 4 days at 37° C. in a humidified incubator, the cells were lysed in the Cell-Titer-Glo reagent, which also contains luciferase enzyme. The luciferase reaction utilizes ATP released from lysed cells to produce light, the intensity of which is linearly related to the amount of ATP. Thus, the amount of light produced is a reflection of the number of cells remaining in the well after drug treatment. This luminescence was measured using a Luminoskan luminometer (Thermo Electron Corp., Vantaa, Finland) Data were expressed as the percentage of survival of control cells calculated from the luminescence corrected for background. The surviving percent of cells was determined by dividing the mean luminescence values of the treated wells by the mean luminescence values of the control and multiplying by 100.
as §1, with “Briefly,” for “To evaluate cell killing of cancer cell lines, an in vitro cytotoxicity assay was performed. The”, “thyroid), PC-3 (prostate) and A549 (lung).” for “thyroid).”
Cell culture-based assays can be used to evaluate the ability of compounds of the invention to inhibit one or more cellular activities, such as cancer cell growth and/or survival. Numerous cancer cell lines can be obtained from the American Type Culture Collection (ATCC) and other sources. Briefly, cells are seeded into 96-well, tissue-culture treated, opaque white plates (Thermo Electron, Vantaa, Finland), at between 5000 and 10000 cells per well, depending on the speed of cell proliferation, in 100 μl of appropriate growth medium (determined by the ATCC). Cells are then exposed to the appropriate concentration of drug or an equal amount of DMSO (drug diluent) and allowed to grow in its presence for 96 hours. Following this, 100 μl of Cell-Titer-Glo reagent (Promega, Inc., Madison, Wis.) is added to each well. Plates are then shaken for 2 minutes at room temperature to allow for cell lysis and incubated for 10 minutes to stabilize the luminescent signal. Similar to the Kinase-Glo assay reagent from Promega, this reagent contains both luciferase enzyme and its substrate luciferin. Luciferase, activated by ATP in the cell lysate, catalyzes the conversion of luciferin to oxyluciferin, a reaction which produces light. […]

In the next assay the test system is Panc-1 cells. Nature of the assay: hollow fiber xenograft model (MTT), Panc-1. As to conditions: Panc-1 fibers implanted SC. It is filed as in vivo, athymic nude mice. As for the experimental part:
Compound 2-3 was tested against three tumor types in athymic nude mice using the hollow fiber xenograft model. After incubation and growth overnight, drug-permeable fibers containing tumor cells were surgically implanted either intraperitoneally (IP) or subcutaneously (SC) and allowed to grow for 24-hours. After treatment with compound 2-3, fibers were removed and tumor cell growth was measured using the MTT assay. A549, Panc-1 or HT-29 cells were injected into separate fibers and each mouse received a fiber containing each cell line both SC and IP totaling six fibers per mouse.

In assay [2] the test system is Granta-22 lymphoma cell line. Nature of the assay: lymphoma cell number reduction, Granta-22. It is filed as cell-based. As to conditions: 48 hours; read-out: IC50 Values Granta-22, single agent. On the procedure:
(§2) New IC50 values were calculated for the second agent in an effort to determine whether or not pretreatment with one compound would increase sensitivity to the other. As set forth in the table below, compound 2-3 pretreatment led to an increased sensitivity to Taxol®, however Taxol® pretreatment appeared to be […] to compound 2-3 in this assay.

Assay [3] has as its system Histone H3 phospho-Serine 10 in MiaPaCa-2 cells. Nature of the assay: Western Blot for Histone H3 phospho-Serine 10. In kind it is cell-based. The following applies: synchronized MiaPaCa-2 cells, 30 µM compound, 24 hours. The source says:
A hallmark of Aurora-2 kinase inhibition, which distinguishes it from Aurora-1 kinase inhibition, is an increase in Histone H3 phosphorylation on Serine 10, an activity which is controlled by Aurora-1 kinase. This is in contrast to the decrease in Histone H3 phosphorylation that has been observed with Aurora-1 kinase inhibition. Compound 2-3 was examined for its effect on Histone H3 phosphorylation, in order to further verify its specificity for Aurora-2 kinsase. Briefly, MiaPaCa-2 cells were grown in 25 cm^2 flasks to approximately 40% confluency, and then synchronized with Aphidicolin and Hoechst 33342 as described above. Cell were then released and treated with 30 µM compound 2-3 in culture medium for 24 hours. Cells were then lysed, and total protein was quantified. 50 μg of total protein was electrophoresed and transferred to nitrocellulose, at which time Western Blot analysis for Histone H3 phospho-Serine 10 was performed. […] This signal quickly disappeared, as the cells began to undergo apoptosis, as discussed earlier.

In assay [4] the test system is Granta-4 lymphoma cell line. The assay is described as follows: lymphoma cell number reduction, Granta-4. As to conditions: 48 hours; read-out: IC50 Values Granta-4, single agent. In kind it is cell-based. On the procedure: as §2
Setting [5] is: 96 h, Example 20, 4 days, read-out: Cell-based IC50 values TT.

Read-outs that look alike come from different tables or passages of the source.

`CC(=O)NS(=O)(=O)c1ccc(NC(=S)N2CCN(c3ncnc4[nH]c5cc(C(F)(F)F)c(Cl)cc5c34)CC2)cc1` [Compound 1-1, 4-(6-Chloro-7-trifluoromethyl-9H-pyrimido[4,5-b]indol-4-yl)-piperazine-1-carbothioic acid (4-acetylsulfamoyl-phenyl)-amide]: the IC50 in assay [1] was 7.83 µM; in the assay with TT (medullary thyroid) (96 h, Example 18, 4 days, read-out: calculated IC50 TT) it was 51.7 µM; in the assay on TT (medullary thyroid) (setting [5]), 11 µM; with TT (medullary thyroid) (Table 10, 96 hours, read-out: IC50 TT (inhibit cell growth to 50% of untreated)), 51.7 µM.
For the compound `COc1cc2[nH]c3ncnc(N4CCN(C(=S)Nc5ccc(S(=O)(=O)NC(C)=O)cc5)CC4)c3c2cc1OC` [Compound 1-2, 4-(6,7-Dimethoxy-9H-pyrimido[4,5-b]indol-4-yl)-piperazine-1-carbothioic acid (4-acetylsulfamoyl-phenyl)-amide], the IC50 with TT (medullary thyroid) (setting [5]) was 64 µM.
On the same count and under the same terms, for `CC(=O)NS(=O)(=O)c1ccc(NC(=S)N2CCN(c3ncnc4[nH]c5ccc(Cl)cc5c34)CC2)cc1` [Compound 1-3, 4-(6-chloro-9H-pyrimido[4,5-b]indol-4-yl)-piperazine-1-carbothioic acid (4-acetylsulfamoyl-phenyl)-amide] the value was 13.2 µM; for `COc1cc2[nH]c3ncnc(N4CCN(C(=S)Nc5ccc(NC(=O)C6CC6)cc5)CC4)c3c2cc1OC` [Compound 1-34], 99.1 µM; for `COc1cc2[nH]c3ncnc(N4CCN(C(=S)Nc5ccc(NC(C)=O)cc5)CC4)c3c2cc1OC` [Compound 1-42], 129 µM.
As to `COc1cc2[nH]c3ncnc(N4CCN(C(=S)Nc5ccc(S(N)(=O)=O)cc5)CC4)c3c2cc1OC` [Compound 1-107], the IC50 in the assay on TT (medullary thyroid) (setting [5]) turned out to be 147 µM.
On the same count and under the same terms, for `COc1cc2[nH]c3ncnc(N4CCN(C(=S)Nc5ccc(S(C)(=O)=O)cc5)CC4)c3c2cc1OC` [Compound 1-115] the value was 38.6 µM.
As for `COc1cc2[nH]c3ncnc(N4CCN(C(=S)Nc5ccc(S(=O)(=O)Nc6ccc(F)cc6)cc5)CC4)c3c2cc1OC` [Compound 2-3, 4-(6,7-dimethoxy-9H-pyrimido[4,5-b]indol-4-yl)-N-(4-(N-(4-fluorophenyl)sulfamoyl)phenyl)piperazine-1-carbothioamide], the figures for the “tumor cell growth in fibers” value in the assay with Panc-1 cells (20 mg/kg intravenous) and in the assay with Panc-1 cells (40 mg/kg intravenous) were 58.7 % growth and 60.9 % growth, respectively. The IC50 in assay [2] was 6.67 µM; in assay [4] it was 2.04 µM. The “Histone H3 Serine 10 phosphorylation” value in assay [3] was “pronounced phosphorylation signal”.

The record behind these values is patent publication US20080207632A1, “PROTEIN KINASE INHIBITORS” (SUPERGEN, INC., priority 2006, published 2008).
